Experiments:
Assay in all cases: Test B pre-/postemergence plant response
Assay type in all cases: in vivo
[1] = system: yellow nutsedge (Cyperus esculentus)
From the text: (§1) Seeds of plant species selected from blackgrass (Alopecurus myosuroides), downy bromegrass (Bromus tectorum), green foxtail (Setaria viridis), Italian ryegrass (Lolium multiflorum), wheat (Triticum aestivum), wild oat (Avena fatua), catchweed bedstraw (Galium aparine), bermudagrass (Cynodon dactylon), surinam grass (Brachiaria decumbens), cocklebur (Xanthium strumarium), corn (Zea mays), large crabgrass (Digitaria sanguinalis), woolly cupgrass (Eriochloa villosa), giant foxtail (Setaria faberii), goosegrass (Eleusine indica), johnsongrass (Sorghum halepense), kochia (Kochia scoparia), lambsquarters (Chenopodium album), morningglory (Ipomoea coccinea), eastern black (E.B.) nightshade (Solanum ptycanthum), yellow nutsedge (Cyperus esculentus), pigweed (Amaranthus retroflexus), common ragweed (Ambrosia elation), Russian thistle (Salsola iberica), soybean (Glycine max), common (oilseed) sunflower (Helianthus annuus), and velvetleaf (Abutilon theophrasti) were planted and treated preemergence with test chemicals formulated in a non-phytotoxic solvent mixture which included a surfactant.
(§2) At the same time, plants selected from these crop and weed species and also winter barley (Hordeum vulgare), canarygrass (Phalaris minor), chickweed (Stellaria media) and windgrass (Apera spica-venti) were treated with postemergence applications of some of the test chemicals formulated in the same manner. Plants ranged in height from 2 to 18 cm (1- to 4-leaf stage) for postemergence treatments.
(§3) Plant species in the flooded paddy test consisted of rice (Oryza sativa), umbrella sedge (Cyperus difformis), ducksalad (Heteranthera limosa) and barnyardgrass (Echinochloa crus-galli) grown to the 2-leaf stage for testing. At time of treatment, test pots were flooded to 3 cm above the soil surface, treated by application of test compounds directly to the paddy water, and then maintained at that water depth for the duration of the test. Treated plants and controls were maintained in a greenhouse for 13 to 15 days, after which time all species were compared to controls and visually evaluated. Plant response ratings, summarized in Table B, are based on a scale of 0 to 100 where 0 is no effect and 100 is complete control. A dash (-) response means no test result.

[2] = system: giant foxtail (Setaria faberii)
From the text: as §1, §2, §3

[3] = system: bermudagrass (Cynodon dactylon); settings: for Bermudagrass plant response rating: 8 g ai/ha
From the text: as §1, §2, §3

corn (Zea mays) = system: corn (Zea mays)
From the text: as §1, §2, §3

[4] = system: cocklebur (Xanthium strumarium); settings: for Cocklebur plant response rating: 8 g ai/ha
From the text: as §1, §2, §3

[5] = system: velvetleaf (Abutilon theophrasti)
From the text: as §1, §2, §3

[6] = system: woolly cupgrass (Eriochloa villosa)
From the text: as §1, §2, §3

[7] = system: downy bromegrass (Bromus tectorum); settings: for Bromegrass, Downy plant response rating: 8 g ai/ha
From the text: as §1, §2, §3

[8] = system: Russian thistle (Salsola iberica); settings: Preemergence; for Russian Thistle plant response rating: scale 0 to 100
From the text: as §1, §2, §3

[9] = system: Italian ryegrass (Lolium multiflorum)
From the text: as §1, §2, §3

[10] = 8 g ai/ha, postemergence, 0-100 scale
[11] = 16 g ai/ha, postemergence, 0-100 scale
[12] = Postemergence, 31 g ai/ha, scale 0 to 100
[13] = Postemergence, 62 g ai/ha, scale 0 to 100, 0 no effect, 100 complete control
[14] = Preemergence, 31 g ai/ha, scale 0 to 100 (0 no effect, 100 complete control)
[15] = Preemergence, 62 g ai/ha, 0 to 100 scale, 0 no effect, 100 complete control
[16] = Preemergence, 8 g ai/ha, scale 0 to 100
[17] = Preemergence, 16 g ai/ha, scale 0 to 100
[18] = Postemergence, 16 g ai/ha, scale 0 to 100
[19] = Preemergence, 16 g ai/ha, scale 0 to 100 (0 no effect, 100 complete control)

CCc1cc(-c2ccc(Br)cc2)nn1-c1c(O)c(C)nn(C)c1=O [Compound 74]
Nutsedge, Yellow plant response rating [1, 10]: 0
Nutsedge, Yellow plant response rating [1, 11]: 0
Plant response rating, Nutsedge, Yellow [1, 12]: 0
Plant response rating, Nutsedge, Yellow [1, 13]: 0
Plant response rating, Nutsedge, Yellow [1, 14]: 0
Plant response rating, Nutsedge, Yellow [1, 15]: 0
Nutsedge, Yellow plant response rating [1, 16]: 0
Nutsedge, Yellow plant response rating [1, 17]: 0
Foxtail, Giant plant response rating [2, 10]: 80
Plant response rating, Foxtail, Giant [2, 18]: 85
Plant response rating, Foxtail, Giant [2, 12]: 95
Plant response rating, Foxtail, Giant [2, 13]: 98
Plant response rating, Foxtail, Giant [2, 14]: 100
Plant response rating, Foxtail, Giant [2, 15]: 100
Foxtail, Giant plant response rating [2, 16]: 80
Foxtail, Giant plant response rating [2, 17]: 98
Bermudagrass plant response rating ([3]; postemergence, 0-100 scale): 20
Plant response rating, Bermudagrass [3, 18]: 85
Plant response rating, Bermudagrass [3, 12]: 95
Plant response rating, Bermudagrass [3, 13]: 98
Bermudagrass plant response rating ([3]; Preemergence, scale 0 to 100 (0 no effect, 100 complete control)): 100
Plant response rating, Bermudagrass [3, 19]: 100
Plant response rating, Bermudagrass [3, 14]: 100
Plant response rating, Bermudagrass [3, 15]: 100
Corn plant response rating (corn (Zea mays); [10]): 98
Plant response rating, Corn (corn (Zea mays); [18]): 100
Plant response rating, Corn (corn (Zea mays); [12]): 100
Plant response rating, Corn (corn (Zea mays); [13]): 100
Plant response rating, Corn (corn (Zea mays); [14]): 90
Plant response rating, Corn (corn (Zea mays); [15]): 98
Corn plant response rating (corn (Zea mays); [16]): 75
Corn plant response rating (corn (Zea mays); [17]): 80
Cocklebur plant response rating ([4]; postemergence, 0-100 scale): 0
Plant response rating, Cocklebur [4, 18]: 0
Plant response rating, Cocklebur [4, 12]: 0
Plant response rating, Cocklebur [4, 13]: 0
Plant response rating, Cocklebur [4, 19]: 0
Plant response rating, Cocklebur [4, 14]: 0
Plant response rating, Cocklebur [4, 15]: 0
Cocklebur plant response rating ([4]; Preemergence, scale 0 to 100): 0
Velvetleaf plant response rating [5, 10]: 0
Velvetleaf plant response rating [5, 11]: 0
Plant response rating, Velvetleaf [5, 12]: 0
Plant response rating, Velvetleaf [5, 13]: 0
Plant response rating, Velvetleaf [5, 14]: 0
Plant response rating, Velvetleaf [5, 15]: 0
Velvetleaf plant response rating [5, 16]: 0
Velvetleaf plant response rating [5, 17]: 0
Cupgrass, Woolly plant response rating [6, 10]: 85
Plant response rating, Cupgrass, Woolly [6, 18]: 90
Plant response rating, Cupgrass, Woolly [6, 12]: 90
Plant response rating, Cupgrass, Woolly [6, 13]: 98
Plant response rating, Cupgrass, Woolly [6, 14]: 98
Plant response rating, Cupgrass, Woolly [6, 15]: 100
Cupgrass, Woolly plant response rating [6, 16]: 65
Cupgrass, Woolly plant response rating [6, 17]: 95
Bromegrass, Downy plant response rating ([7]; postemergence, 0-100 scale): 10
Plant response rating, Bromegrass, Downy [7, 18]: 40
Plant response rating, Bromegrass, Downy [7, 12]: 50
Plant response rating, Bromegrass, Downy [7, 13]: 60
Plant response rating, Bromegrass, Downy [7, 19]: 85
Plant response rating, Bromegrass, Downy [7, 14]: 85
Plant response rating, Bromegrass, Downy [7, 15]: 85
Bromegrass, Downy plant response rating ([7]; Preemergence, scale 0 to 100): 30
Plant response rating, Russian Thistle ([8]; 31 g ai/ha, scale 0 to 100 (0 no effect, 100 complete control)): 0
Plant response rating, Russian Thistle ([8]; 62 g ai/ha, 0 to 100 scale, 0 no effect, 100 complete control): 0
Russian Thistle plant response rating ([8]; 8 g ai/ha): 0
Russian Thistle plant response rating ([8]; 16 g ai/ha): 0
Ryegrass, Italian plant response rating [9, 10]: 98
Ryegrass, Italian plant response rating [9, 11]: 100
Plant response rating, Ryegrass, Italian [9, 12]: 100
Plant response rating, Ryegrass, Italian [9, 13]: 100
Plant response rating, Ryegrass, Italian [9, 14]: 100
Plant response rating, Ryegrass, Italian [9, 15]: 100
Ryegrass, Italian plant response rating [9, 16]: 60
Ryegrass, Italian plant response rating [9, 17]: 98
